Test results published in PMC8750527 (Cancers, 2021).

Key:
DAOY = assay: Cumulative population doubling (CPD), DAOY; format: cell-based, human; details: continuous treatment; axitinib 5 µM, etoposide 1 µM
Method: (§1) Cumulative population doubling (CPD) was assessed as previously described. Briefly, depending on the cell line, a variable number of cells corresponding to about 30% confluency were seeded in triplicate in 60 mm diameter Petri dishes. […] The cells were harvested when the confluency reached about 90%, counted and plated again at a dilution of 1/20. CPD was calculated as previously described.

HD-MB03 = assay: Cumulative population doubling (CPD), HD-MB03; format: cell-based, human; details: continuous treatment; axitinib 5 µM, etoposide 1 µM
Method: as §1

For `CNC(=O)c1ccccc1Sc1ccc2c(/C=C/c3ccccn3)n[nH]c2c1` [Axitinib, axitinib], the “long-term proliferation (CPD) of DAOY cells” value (DAOY) was “strongly impaired their proliferation” and the “long-term proliferation (CPD) of HD-MB03 cells” value (HD-MB03) was “strongly impaired their proliferation”.
